Test results published in patent US11160790B2, “Method of inhibiting Cryptococcus growth using eltrombopag” (priority 2019, dated 2021).

Legend:
C. neoformans H99 [1] = assay: XTT-reduction assay of biofilm metabolic activity; assay type: cell-based, Cryptococcus neoformans; conditions: at respective MICs (1 mg/L amphotericin B, 4 mg/L fluconazole), 24 hours
Method: Cryptococcus biofilms, which are composed of Cryptococcus cells and extracellular matrix, enhance the tolerance of Cryptococcus to antifungal agents (such as amphotericin B) and host defense mechanisms. To assess whether eltrombopag impacts biofilm formation in Cryptococcus, an XTT-reduction assay was used to measure the metabolic activity of C. neoformans cells treated with eltrombopag at 37° C. Briefly, C. neoformans […] cells were cultured in YPD medium at 30° C. overnight. The cells were washed twice with phosphate buffered saline (PBS) and resuspended in RPMI 1640 medium with or without eltrombopag at the indicated concentrations. The cell suspension (0.0005 OD600/mL) was added to a 96-well polystyrene plate and incubated at 37° C. for 24 or 48 hours. […] After incubation, the cells were washed three times with PBS and subjected to XTT reduction assay to quantify formazan formation by measuring the light absorbance at 492 nm. The experiments were performed in triplicate, and the results were presented as mean±standard deviation. Statistical significance for the data sets was determined using a two-tailed t test.

C. neoformans H99 [2] = assay: Checkerboard titration assay; assay type: cell-based, Cryptococcus neoformans; conditions: 30° C., 48 hours
Method: (§1) Amphotericin B plus 5-flucytosine or fluconazole are combinations often used to treat cryptococcal meningitis. To investigate the synergy between eltrombopag and existing antifungal drugs or other drugs, a checkerboard titration assay was performed on Cryptococcus. Briefly, C. neoformans […] and C. deuterogattii […] cells were cultured overnight at 30° C. and then washed twice with double-distilled water. The cells were diluted to 10^3 cfu/mL with RPMI 1640 medium, and 100 μL of the cell suspension was added to each well of a 96-well polystyrene plate. […] After incubation at 30° C. for 48 hours, the growth of cells under different treatments was assessed by measuring the light absorbance at 600 nm (OD600). This assay allows the determination of fractional inhibitory concentration index (FICI): (MICcombined of drug A/MICalone of drug A)+(MICcombined of drug B/MICalone of drug B). After the checkerboard titration assay, the cells (3 μL) in the 96-well plate were transferred to drug-free YPD agar plates. After incubation at 30° C. for 48 hours, the agar plates were photographed and assessed for cell viability.

C. deuterogattii R265 = assay: Checkerboard titration assay; assay type: cell-based, Cryptococcus deuterogattii; conditions: 30° C., 48 hours
Method: as §1

MICalone (C. neoformans H99 [2])	MICcombined of AMB (C. neoformans H99 [2]; AMB in combination with ETP)	MICalone (C. deuterogattii R265)	MICcombined of AMB (C. deuterogattii R265; AMB in combination with ETP)	MICcombined of FK506 (C. neoformans H99 [2]; FK506 in combination with ETP)	MICcombined of FK506 (C. deuterogattii R265; FK506 in combination with ETP)	MICcombined of FLC (C. neoformans H99 [2]; FLC in combination with ETP)	MICcombined of FLC (C. deuterogattii R265; FLC in combination with ETP)	Compound	reducing the metabolic activity of C. neoformans biofilms, compared with eltrombopag (C. neoformans H99 [1])
1 mg/L	0.5 mg/L	1 mg/L	1 mg/L					C[C@@H]1[C@H](O)[C@@H](C)/C=C/C=C/C=C/C=C/C=C/C=C/C=C/[C@H](O[C@@H]2O[C@H](C)[C@@H](O)[C@H](N)[C@@H]2O)C[C@@H]2O[C@](O)(C[C@@H](O)C[C@@H](O)[C@H](O)CC[C@@H](O)C[C@@H](O)CC(=O)O[C@H]1C)C[C@H](O)[C@H]2C(=O)O [AMB, amphotericin B]	less effective than eltrombopag
>16 mg/L		>16 mg/L		0.25 mg/L	0.25 mg/L			C=CC[C@@H]1/C=C(\C)C[C@H](C)C[C@H](OC)[C@H]2O[C@@](O)(C(=O)C(=O)N3CCCC[C@H]3C(=O)O[C@H](/C(C)=C/[C@@H]3CC[C@@H](O)[C@H](OC)C3)[C@H](C)[C@@H](O)CC1=O)[C@H](C)C[C@@H]2OC [FK506, tacrolimus]	
4 mg/L		16 mg/L				8 mg/L	16 mg/L	OC(Cn1cncn1)(Cn1cncn1)c1ccc(F)cc1F [FLC, fluconazole]	less effective than eltrombopag
